What was measured:
Design in all cases: dose 100 mg/kg, route oral
Details in all cases: in vivo
Rattus norvegicus [1] = assay: Tmax in SPF Rattus norvegicus (rat) at 100 mg/kg, po; type: ADME, organism-based
Rattus norvegicus [2] = assay: Cmax in SPF Rattus norvegicus (rat) at 100 mg/kg, po; type: ADME, organism-based
Rattus norvegicus [3] = assay: AUC in SPF Rattus norvegicus (rat) at 100 mg/kg, po; type: ADME, organism-based, Plasma
Rattus norvegicus [4] = assay: Half life in SPF Rattus norvegicus (rat) at 100 mg/kg, po; type: ADME, organism-based
Plasma = assay: Stability in SPF Rattus norvegicus (rat) plasma assessed as berberine formation at 100 mg/kg, po; type: ADME, organism-based

Tmax (Rattus norvegicus [1]) [h] | Cmax (Rattus norvegicus [2]) [ng/mL] | AUC (Rattus norvegicus [3]) [ng·h/mL] | t1/2 (Rattus norvegicus [4]) [h] | Stability (Plasma) | SMILES
3 | 48.7 | 205.146 | 7.43 | Unstable | COc1ccc2cc3[n+](cc2c1OC1OC[C@@H](O)[C@@H](O)[C@@H]1O)CCc1cc2c(cc1-3)OCO2 (stereo partly drawn) [9-O-ARABINOSYL-BERBERINE]
3.5 | 3.71 | 14.592 | 7.86 | Stable | CCCCCCCCCCCCOc1c(OC)ccc2cc3[n+](cc12)CCc1cc2c(cc1-3)OCO2 [9-O-DODECYL-BERBERINE]
3 | 37.5 | 180.316 | 7.31 | Unstable | COc1ccc2cc3[n+](cc2c1OC[C@H](O)[C@H](O)CO)CCc1cc2c(cc1-3)OCO2 [9-O-ERYTHROL-BERBERINE]
3 | 63.4 | 268.94 | 7.58 | Unstable | COc1ccc2cc3[n+](cc2c1OC1O[C@H](CO)[C@@H](O)[C@H](O)[C@H]1O)CCc1cc2c(cc1-3)OCO2 (stereo partly drawn) [9-O-GLUCOSYL-BERBERINE]
3 | 4.39 | 17.329 | 7.85 | – | CCCCCCCCOc1c(OC)ccc2cc3[n+](cc12)CCc1cc2c(cc1-3)OCO2 [9-O-OCTYL-BERBERINE]
2 | 6.79 | 24.184 | 7.88 | – | COc1ccc2cc3[n+](cc2c1OC)CCc1cc2c(cc1-3)OCO2 [BERBERINE]
